Experimental data taken from patent US10543298B2, “Salts of tetracyclines” (Hovione Scientia Limited, priority 2015, dated 2020).
Counter-ions that a name gives are not always drawn. Like-named read-outs stand apart in the source and are kept apart here.

Columns and labels:
[1] = Solubility in buffers at pH 1.0, 1.2, 4.5, 6.8 and 7.5; format: physicochemical; settings: for Solubility pH = 1.0 (class) / Solubility pH = 1.0 (volume of solvent required for dissolution per gram of solute): buffer pH 1.0, KCl 0.2 M / HCl 0.2 M; for Solubility pH = 1.2 (class) / Solubility pH = 1.2 (volume of solvent required for dissolution per gram of solute): buffer pH 1.2, KCl 0.2 M / HCl 0.2 M; for Solubility pH = 4.5 (class) / Solubility pH = 4.5 (volume of solvent required for dissolution per gram of solute): buffer pH 4.5, potassium biphthalate 0.2 M / HCl 0.2 M; for Solubility pH = 6.8 (class) / Solubility pH = 6.8 (volume of solvent required for dissolution per gram of solute): buffer pH 6.8, monobasic potassium phosphate 0.2 M / NaOH 0.2 M; for Solubility pH = 7.5 (class) / Solubility pH = 7.5 (volume of solvent required for dissolution per gram of solute): buffer pH 7.5, monobasic potassium phosphate 0.2 M / NaOH 0.2 M
Method: The buffers at pH 1.0 and 1.2 were prepared with aqueous solutions of potassium chloride 0.2M and hydrochloric acid 0.2 M, the buffers at pH 6.8 and 7.5 were prepared with aqueous solutions of monobasic potassium phosphate 0.2 M and sodium hydroxide 0.2 M and the buffer at pH 4.5 with aqueous solutions of potassium biphthalate 0.2 M and hydrochloric acid 0.2 M, according to pharmacopoeia USP31.
The statement freely soluble means that the volume of solvent (required for dissolution) in ml per gram of solute is of from 1 to 10. The statement soluble means that the volume of solvent (required for dissolution) in ml per gram of solute is of from […]. The statement sparingly soluble means that the volume of solvent (required for dissolution) in ml per gram of solute is of from 30 to 100. The statement slightly soluble means that the volume of solvent (required for dissolution) in ml per gram of solute is of from 100 to 1000. The statement very slightly soluble means that the volume of solvent (required for dissolution) in ml per gram of solute is from 1000 to 10 000.

[2] = Color classification according to the Munsell color system; format: physicochemical; settings: for Munsell Classification: Munsell color system
Description: The table below presents the color classification of the doxycycline salts according to the Munsell color system.

[3] = pH of aqueous solutions of the salts; settings: for pH: aqueous solution, concentration approximately 10^-3 M
[4] = background statement on the acidic salt; cited from earlier work

CCO.C[C@H]1c2cccc(O)c2C(=O)C2=C(O)[C@]3(O)C(=O)C(C(N)=O)=C(O)[C@@H](N(C)C)[C@@H]3[C@@H](O)[C@@H]21.C[C@H]1c2cccc(O)c2C(=O)C2=C(O)[C@]3(O)C(=O)C(C(N)=O)=C(O)[C@@H](N(C)C)[C@@H]3[C@@H](O)[C@@H]21.Cl.Cl.O [Doxycycline Hyclate, reference compound]
Solubility pH = 1.0 (class) [1]: Soluble (The statement soluble means that the volume of solvent (required for dissolution) in ml per gram of solute is of from 1 to 30) | Solubility pH = 1.0 (volume of solvent required for dissolution per gram of solute) [1]: 16 ml/g | Solubility pH = 1.2 (class) [1]: Freely soluble (The statement freely soluble means that the volume of solvent (required for dissolution) in ml per gram of solute is of from 1 to 10) | Solubility pH = 1.2 (volume of solvent required for dissolution per gram of solute) [1]: 3 ml/g | Solubility pH = 4.5 (class) [1]: Sparingly (The statement sparingly soluble means that the volume of solvent (required for dissolution) in ml per gram of solute is of from 30 to 100) | Solubility pH = 4.5 (volume of solvent required for dissolution per gram of solute) [1]: 53 ml/g | Solubility pH = 6.8 (class) [1]: Freely soluble (The statement freely soluble means that the volume of solvent (required for dissolution) in ml per gram of solute is of from 1 to 10) | Solubility pH = 6.8 (volume of solvent required for dissolution per gram of solute) [1]: 2 ml/g | Solubility pH = 7.5 (class) [1]: Sparingly (The statement sparingly soluble means that the volume of solvent (required for dissolution) in ml per gram of solute is of from 30 to 100) | Solubility pH = 7.5 (volume of solvent required for dissolution per gram of solute) [1]: 100 ml/g | Color Description [2]: Yellowish | Munsell Classification [2]: 10Y 9/3.5 NN | Munsell Classification ([2]; listed as doxycycline hyclate): yellowish 10Y

CC1c2cccc(O)c2C(O)=C2C(=O)C3(O)C(O)=C(C(N)=O)C(=O)C(N(C)C)C3C(O)C21.O=C(O)C=CC(=O)O (stereo not shown) [Doxycycline Maleate]
pH [3]: 3.3 | Solubility pH = 1.0 (class) [1]: Soluble (The statement soluble means that the volume of solvent (required for dissolution) in ml per gram of solute is of from 1 to 30) | Solubility pH = 1.0 (volume of solvent required for dissolution per gram of solute) [1]: 13 ml/g | Solubility pH = 1.2 (class) [1]: Soluble (The statement soluble means that the volume of solvent (required for dissolution) in ml per gram of solute is of from 1 to 30) | Solubility pH = 1.2 (volume of solvent required for dissolution per gram of solute) [1]: 13 ml/g | Solubility pH = 4.5 (class) [1]: Sparingly (The statement sparingly soluble means that the volume of solvent (required for dissolution) in ml per gram of solute is of from 30 to 100) | Solubility pH = 4.5 (volume of solvent required for dissolution per gram of solute) [1]: 63 ml/g | Solubility pH = 6.8 (class) [1]: Sparingly (The statement sparingly soluble means that the volume of solvent (required for dissolution) in ml per gram of solute is of from 30 to 100) | Solubility pH = 6.8 (volume of solvent required for dissolution per gram of solute) [1]: 83 ml/g | Solubility pH = 7.5 (class) [1]: Sparingly (The statement sparingly soluble means that the volume of solvent (required for dissolution) in ml per gram of solute is of from 30 to 100) | Solubility pH = 7.5 (volume of solvent required for dissolution per gram of solute) [1]: 77 ml/g | Solubility compared with doxycycline monohydrate ([1]; pH 4.5, pH 6.8 and pH 7.5): higher than that of the monohydrate | Color Description [2]: Off-white | Munsell Classification [2]: 9.25/10Y/2.5 NN

C[C@H]1c2cccc(O)c2C(=O)C2=C(O)[C@]3(O)C(=O)C(C(N)=O)=C(O)[C@@H](N(C)C)[C@@H]3[C@@H](O)[C@@H]21 [Doxycycline Monohydrate, reference compound]
Solubility pH = 1.0 (class) [1]: Soluble (The statement soluble means that the volume of solvent (required for dissolution) in ml per gram of solute is of from 1 to 30) | Solubility pH = 1.0 (volume of solvent required for dissolution per gram of solute) [1]: 19 ml/g | Solubility pH = 1.2 (class) [1]: Soluble (The statement soluble means that the volume of solvent (required for dissolution) in ml per gram of solute is of from 1 to 30) | Solubility pH = 1.2 (volume of solvent required for dissolution per gram of solute) [1]: 25 ml/g | Solubility pH = 4.5 (class) [1]: Slightly (The statement slightly soluble means that the volume of solvent (required for dissolution) in ml per gram of solute is of from 100 to 1000) | Solubility pH = 4.5 (volume of solvent required for dissolution per gram of solute) [1]: 1000 ml/g | Solubility pH = 6.8 (class) [1]: Slightly (The statement slightly soluble means that the volume of solvent (required for dissolution) in ml per gram of solute is of from 100 to 1000) | Solubility pH = 6.8 (volume of solvent required for dissolution per gram of solute) [1]: 333 ml/g | Solubility pH = 7.5 (class) [1]: Slightly (The statement slightly soluble means that the volume of solvent (required for dissolution) in ml per gram of solute is of from 100 to 1000) | Solubility pH = 7.5 (volume of solvent required for dissolution per gram of solute) [1]: 1000 ml/g | Color Description [2]: Yellowish | Munsell Classification [2]: 10Y/9/3.5 NN

C[C@H]1c2cccc(O)c2C(O)=C2C(=O)[C@]3(O)C(O)=C(C(N)=O)C(=O)[C@@H](N(C)C)[C@@H]3[C@@H](O)[C@@H]21.O=C(O)C(=O)O [Doxycycline Oxalate]
pH [3]: 3.2 | Solubility pH = 1.0 (class) [1]: Slightly (The statement slightly soluble means that the volume of solvent (required for dissolution) in ml per gram of solute is of from 100 to 1000) | Solubility pH = 1.0 (volume of solvent required for dissolution per gram of solute) [1]: 500 ml/g | Solubility pH = 1.2 (class) [1]: Very Slightly (The statement very slightly soluble means that the volume of solvent (required for dissolution) in ml per gram of solute is from 1000 to 10 000) | Solubility pH = 1.2 (volume of solvent required for dissolution per gram of solute) [1]: 1900 ml/g | Solubility pH = 4.5 (class) [1]: Slightly (The statement slightly soluble means that the volume of solvent (required for dissolution) in ml per gram of solute is of from 100 to 1000) | Solubility pH = 4.5 (volume of solvent required for dissolution per gram of solute) [1]: 500 ml/g | Solubility pH = 6.8 (class) [1]: Slightly (The statement slightly soluble means that the volume of solvent (required for dissolution) in ml per gram of solute is of from 100 to 1000) | Solubility pH = 6.8 (volume of solvent required for dissolution per gram of solute) [1]: 125 ml/g | Solubility pH = 7.5 (class) [1]: Slightly (The statement slightly soluble means that the volume of solvent (required for dissolution) in ml per gram of solute is of from 100 to 1000) | Solubility pH = 7.5 (volume of solvent required for dissolution per gram of solute) [1]: 143 ml/g | Solubility compared with the hydrochloride / hyclate ([1]; pH 1.0, 1.2, 4.5, 6.8 and 7.5 (all pH values tested)): lower than that of the hyclate | Solubility compared with doxycycline monohydrate ([1]; pH 1.0 and pH 1.2): lower than that of the monohydrate | Solubility compared with doxycycline monohydrate ([1]; pH 4.5, pH 6.8 and pH 7.5): similar | Color Description [2]: Yellowish | Munsell Classification [2]: 5Y/9/4 NN

CN(C)c1ccc(O)c2c1C[C@H]1C[C@H]3[C@H](N(C)C)C(O)=C(C(N)=O)C(=O)[C@@]3(O)C(O)=C1C2=O [Minocycline Base, 7-dimethylamino-6-demethyl-6-deoxytetracycline, reference compound]
pH [3]: 6.8 | Color Description [2]: Yellowish | Munsell Classification [2]: 7.5Y/9/10 NN

CN(C)C1C(O)=C(C(N)=O)C(=O)C2(O)C(O)=C3C(=O)c4c(O)cccc4C(C)(O)C3CC12.O=C(O)C(=O)O (stereo not shown) [Tetracycline Oxalate]
pH [3]: 3.2 | pH compared with the marketed form ([3]; comparison of the values of the pH table): less acidic than the pH of tetracycline | Color Description [2]: Yellowish | Munsell Classification [2]: 10Y/9/8 NN

CN(C)[C@@H]1C(O)=C(C(N)=O)C(=O)[C@@]2(O)C(O)=C3C(=O)c4c(O)cccc4[C@@](C)(O)[C@H]3C[C@@H]12 [Tetracycline]
Color Description [2]: Yellowish | Munsell Classification [2]: 5Y/9/4 NN

C[C@H]1c2cccc(O)c2C(=O)C2=C(O)[C@]3(O)C(=O)C(C(N)=O)=C(O)[C@@H](N(C)C)[C@@H]3[C@@H](O)[C@@H]21 [doxycycline hydrochloride]
pH [4]: about 3

Demeclocycline Maleate
pH [3]: 3.4 | Solubility pH = 1.0 (class) [1]: Soluble (The statement soluble means that the volume of solvent (required for dissolution) in ml per gram of solute is of from 1 to 30) | Solubility pH = 1.2 (class) [1]: Soluble (The statement soluble means that the volume of solvent (required for dissolution) in ml per gram of solute is of from 1 to 30) | Solubility pH = 4.5 (class) [1]: Sparingly (The statement sparingly soluble means that the volume of solvent (required for dissolution) in ml per gram of solute is of from 30 to 100) | Solubility pH = 6.8 (class) [1]: Sparingly (The statement sparingly soluble means that the volume of solvent (required for dissolution) in ml per gram of solute is of from 30 to 100) | Solubility pH = 7.5 (class) [1]: Sparingly (The statement sparingly soluble means that the volume of solvent (required for dissolution) in ml per gram of solute is of from 30 to 100) | Color Description [2]: Yellowish | Munsell Classification [2]: 5Y/9/2 NN

Demeclocycline Oxalate
pH [3]: 3.3 | Color Description [2]: Yellowish | Munsell Classification [2]: 5Y/9/2.5 NN

Minocycline Oxalate
pH [3]: 3.0 | Color Description [2]: Yellowish | Munsell Classification [2]: 10/Y/9/3.5 NN
